From ChEMBL document CHEMBL1828590 (J Med Chem, 2011) come the findings set out here.

SMILES strings stand for the structures. A value given as a limit tells only on which side of the number the result lay.

Data set [1] deals with Cytochrome P450 2C19 (Homo sapiens, UniProt P33261). In words: Inhibition of CYP2C19 in human liver microsomes by fluorescence assay. In kind it is ADME, Microsome. A general note: Microsomes from liver hold many membrane-bound enzymes, among them those of drug oxidation.
Data set [2] is described as follows: Toxicity in po dosed athymic nu/nu Harlan mouse with xenografted human HCT116 cells assessed as maximum tolerated administered qd for 21 days. In kind it is organism-based, HCT-116. The following applies: in vivo.
Data set [3] deals with T1, Cytochrome P450 2D6 (Homo sapiens, UniProt P10635). In words: Inhibition of CYP2D6 in human liver microsomes by fluorescence assay. In kind it is ADME, Microsome.
For data set [4], the target named is T2, Cytochrome P450 3A4 (Homo sapiens, UniProt P08684). In words: Inhibition of recombinant CYP3A4 after 30 mins by fluorescence assay. Format: ADME.
The target of data set [5] is T1, Cytochrome P450 2D6. As to the kind of experiment: Inhibition of recombinant CYP2D6 after 30 mins by fluorescence assay. In kind it is ADME.
Data set [6] has as its target T2, Cytochrome P450 3A4. As to the kind of experiment: Inhibition of CYP3A4 in human liver microsomes.
Data set [7] concerns the target T3, Histone deacetylase 11 (Homo sapiens, UniProt Q96DB2).
T3 sequence (Q96DB2 whole entry): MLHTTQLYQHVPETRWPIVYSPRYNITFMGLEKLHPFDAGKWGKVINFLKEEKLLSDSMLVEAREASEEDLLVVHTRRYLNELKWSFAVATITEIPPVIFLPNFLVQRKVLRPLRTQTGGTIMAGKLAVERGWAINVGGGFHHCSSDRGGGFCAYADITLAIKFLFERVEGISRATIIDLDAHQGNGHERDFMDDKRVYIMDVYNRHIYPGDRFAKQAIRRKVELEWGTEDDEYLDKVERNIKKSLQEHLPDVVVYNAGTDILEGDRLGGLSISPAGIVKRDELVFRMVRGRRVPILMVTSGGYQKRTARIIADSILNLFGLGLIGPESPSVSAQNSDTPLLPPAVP
Description: Competitive inhibition of HDAC11 using KI-104 as substrate by fluorescence assay

The target of data set [8] is T4, Protein deacetylase HDAC6 (Homo sapiens, UniProt Q9UBN7).
T4 sequence (Q9UBN7 whole entry): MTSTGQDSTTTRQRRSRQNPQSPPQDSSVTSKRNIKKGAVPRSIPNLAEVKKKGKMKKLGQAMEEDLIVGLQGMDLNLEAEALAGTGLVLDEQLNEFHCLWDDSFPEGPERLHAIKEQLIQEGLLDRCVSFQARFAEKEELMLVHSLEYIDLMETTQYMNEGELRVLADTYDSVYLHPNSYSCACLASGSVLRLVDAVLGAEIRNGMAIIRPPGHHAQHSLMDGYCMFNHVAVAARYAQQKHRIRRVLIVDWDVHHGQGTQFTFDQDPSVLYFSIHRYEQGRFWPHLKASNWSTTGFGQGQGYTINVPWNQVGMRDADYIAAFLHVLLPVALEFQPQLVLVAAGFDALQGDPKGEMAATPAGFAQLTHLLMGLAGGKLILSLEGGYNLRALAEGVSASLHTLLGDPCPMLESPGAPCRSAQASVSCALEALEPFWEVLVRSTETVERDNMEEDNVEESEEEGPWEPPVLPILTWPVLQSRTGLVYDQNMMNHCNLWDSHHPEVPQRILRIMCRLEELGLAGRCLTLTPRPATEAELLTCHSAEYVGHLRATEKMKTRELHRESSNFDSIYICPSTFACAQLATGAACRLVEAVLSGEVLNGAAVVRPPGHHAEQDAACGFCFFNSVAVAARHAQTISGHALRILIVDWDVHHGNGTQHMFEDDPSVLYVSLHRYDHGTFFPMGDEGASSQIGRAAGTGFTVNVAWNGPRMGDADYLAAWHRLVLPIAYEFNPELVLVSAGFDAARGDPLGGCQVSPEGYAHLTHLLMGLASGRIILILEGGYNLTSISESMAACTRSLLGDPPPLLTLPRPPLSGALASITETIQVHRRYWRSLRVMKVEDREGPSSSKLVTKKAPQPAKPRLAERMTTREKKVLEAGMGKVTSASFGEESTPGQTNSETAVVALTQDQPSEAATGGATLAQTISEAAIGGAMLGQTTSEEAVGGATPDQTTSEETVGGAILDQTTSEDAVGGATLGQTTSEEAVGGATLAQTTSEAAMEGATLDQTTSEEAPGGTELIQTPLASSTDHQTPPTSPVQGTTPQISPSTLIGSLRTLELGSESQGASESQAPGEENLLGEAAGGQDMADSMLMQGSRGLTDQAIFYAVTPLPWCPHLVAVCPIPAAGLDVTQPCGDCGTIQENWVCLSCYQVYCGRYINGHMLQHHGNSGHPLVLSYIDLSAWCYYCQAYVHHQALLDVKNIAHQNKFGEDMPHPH
Description: Competitive inhibition of HDAC6 using KI-104 as substrate by fluorescence assay

Data set [9] addresses Histone deacetylase 3 (Homo sapiens, UniProt O15379).
Description: Competitive inhibition of HDAC3 using KI-104 as substrate by fluorescence assay
In data set [10] the target is T5, Histone deacetylase 8 (Homo sapiens, UniProt Q9BY41).
T5 sequence (Q9BY41 whole entry): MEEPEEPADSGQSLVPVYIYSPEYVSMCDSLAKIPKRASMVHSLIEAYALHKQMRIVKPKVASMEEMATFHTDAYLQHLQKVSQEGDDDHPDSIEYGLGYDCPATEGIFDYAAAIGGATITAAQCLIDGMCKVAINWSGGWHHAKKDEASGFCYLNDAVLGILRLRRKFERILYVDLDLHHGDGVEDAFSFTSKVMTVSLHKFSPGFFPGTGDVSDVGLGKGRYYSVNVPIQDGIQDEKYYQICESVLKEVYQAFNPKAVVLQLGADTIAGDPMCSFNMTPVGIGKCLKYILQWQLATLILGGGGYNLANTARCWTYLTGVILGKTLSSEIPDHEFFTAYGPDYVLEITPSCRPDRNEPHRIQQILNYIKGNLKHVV
Description: Competitive inhibition of HDAC8 using KI-104 as substrate by fluorescence assay

The target of data set [11] is Histone deacetylase 1 (Homo sapiens, UniProt Q13547).
Description: Inhibition of full length recombinant HDAC1 using Fluor de Lys as substrate by fluorescence assay
Data set [12] is described as follows: Oral bioavailability in Wistar rat at 10 mg/kg. Format: ADME, organism-based. The settings on record: in vivo.
Data set [13] can be described thus: AUC (0 to infinity) in nude BALB/c mouse at 50 mg/kg, po. In kind it is ADME, organism-based. On the set-up: time infinity, dose 50 mg/kg, route oral. The following applies: plasma.
Data set [14] can be described thus: Apparent oral clearance in nude BALB/c mouse at 10 mg/kg, iv. In kind it is ADME, organism-based. On the set-up: dose 10 mg/kg. The settings on record: in vivo.
Data set [15] is described as follows: Terminal half life in nude BALB/c mouse at 10 mg/kg, iv. Further details: dose 10 mg/kg, route intravenous. Format: ADME, organism-based. The settings on record: in vivo, read-out: beta t1/2 (converted).
In data set [16] the test system is Mus musculus. As to the kind of experiment: Toxicity in nude BALB/c mouse xenografted with human MV4-11 cells assessed as maximum body weight loss at 50 mg/kg, po QD for 21 days measured on day 19. Further details: dose 50 mg/kg, route oral. In kind it is organism-based. The settings on record: in vivo, 504 h.
Data set [17] has as its system Mus musculus. As to the kind of experiment: Toxicity in nude BALB/c mouse xenografted with human MV4-11 cells assessed as maximum body weight loss at 25 mg/kg, po QD for 21 days measured on day 12. In kind it is organism-based. On the set-up: dose 25 mg/kg, route oral. The settings on record: in vivo, 504 h. On the technique in general: Xenograft models place foreign cells or tissue in a host animal.

A short description of data set [18]: Oral bioavailability in nude BALB/c mouse at 50 mg/kg. The following applies: in vivo. In kind it is ADME, organism-based.
A short description of data set [19]: Oral bioavailability in Beagle dog at 10 mg/kg. Format: ADME, organism-based, Canis lupus familiaris. The settings on record: in vivo.
Data set [20] is described as follows: AUC (0 to infinity) in Beagle dog at 10 mg/kg, po. Format: ADME, organism-based, Canis lupus familiaris. On the set-up: time infinity, dose 10 mg/kg, route oral. The following applies: plasma.
A short description of data set [21]: AUC (0 to infinity) in Wistar rat at 2 mg/kg, iv. Format: ADME, organism-based. On the set-up: time infinity, dose 2 mg/kg, route intravenous. The following applies: plasma.
The nature of data set [22]: Plasma protein binding in mouse at 1000 ng/mL. The following applies: read-out: PPB (converted). Format: ADME, cell-free.

T1 sequence (P10635 whole entry): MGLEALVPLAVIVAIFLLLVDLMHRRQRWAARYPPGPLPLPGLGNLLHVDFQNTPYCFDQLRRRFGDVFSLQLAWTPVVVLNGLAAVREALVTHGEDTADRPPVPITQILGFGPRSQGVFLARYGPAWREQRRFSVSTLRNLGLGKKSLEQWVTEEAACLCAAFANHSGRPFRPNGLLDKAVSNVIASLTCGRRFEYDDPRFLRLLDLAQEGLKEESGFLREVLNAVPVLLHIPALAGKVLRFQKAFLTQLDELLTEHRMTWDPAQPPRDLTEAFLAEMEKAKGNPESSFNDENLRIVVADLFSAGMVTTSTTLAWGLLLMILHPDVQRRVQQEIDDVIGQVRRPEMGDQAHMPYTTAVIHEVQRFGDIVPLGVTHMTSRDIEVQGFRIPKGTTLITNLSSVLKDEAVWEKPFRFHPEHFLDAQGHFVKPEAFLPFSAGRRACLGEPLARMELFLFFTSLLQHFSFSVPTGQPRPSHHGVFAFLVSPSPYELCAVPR
Sequence of Cytochrome P450 2C19 (P33261 whole entry): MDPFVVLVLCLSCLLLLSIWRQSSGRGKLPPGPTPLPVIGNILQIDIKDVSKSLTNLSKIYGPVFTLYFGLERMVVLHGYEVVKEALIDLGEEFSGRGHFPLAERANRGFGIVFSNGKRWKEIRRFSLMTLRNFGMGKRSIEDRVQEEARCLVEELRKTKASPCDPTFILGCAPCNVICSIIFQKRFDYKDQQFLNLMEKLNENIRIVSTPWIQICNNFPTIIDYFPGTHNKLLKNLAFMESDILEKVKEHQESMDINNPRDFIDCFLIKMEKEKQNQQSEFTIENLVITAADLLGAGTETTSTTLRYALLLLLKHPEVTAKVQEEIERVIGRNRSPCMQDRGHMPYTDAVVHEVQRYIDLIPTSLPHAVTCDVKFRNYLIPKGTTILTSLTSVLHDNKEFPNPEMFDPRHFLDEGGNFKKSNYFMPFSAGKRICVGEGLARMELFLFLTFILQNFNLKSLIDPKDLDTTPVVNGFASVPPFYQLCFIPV
T2 sequence (P08684 whole entry): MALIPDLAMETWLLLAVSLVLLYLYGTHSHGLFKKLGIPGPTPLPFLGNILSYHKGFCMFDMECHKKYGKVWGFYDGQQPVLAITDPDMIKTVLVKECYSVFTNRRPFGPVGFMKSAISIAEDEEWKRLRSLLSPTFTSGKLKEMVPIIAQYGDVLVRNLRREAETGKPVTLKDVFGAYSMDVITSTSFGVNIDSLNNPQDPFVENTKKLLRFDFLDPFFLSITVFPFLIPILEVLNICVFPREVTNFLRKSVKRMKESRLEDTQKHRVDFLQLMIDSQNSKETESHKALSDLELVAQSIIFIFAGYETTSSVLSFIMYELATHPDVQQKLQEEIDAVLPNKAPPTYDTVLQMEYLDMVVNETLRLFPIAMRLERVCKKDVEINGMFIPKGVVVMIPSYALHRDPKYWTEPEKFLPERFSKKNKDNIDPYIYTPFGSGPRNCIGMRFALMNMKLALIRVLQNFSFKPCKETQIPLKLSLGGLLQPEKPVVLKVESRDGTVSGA
Sequence of Histone deacetylase 3 (O15379 whole entry): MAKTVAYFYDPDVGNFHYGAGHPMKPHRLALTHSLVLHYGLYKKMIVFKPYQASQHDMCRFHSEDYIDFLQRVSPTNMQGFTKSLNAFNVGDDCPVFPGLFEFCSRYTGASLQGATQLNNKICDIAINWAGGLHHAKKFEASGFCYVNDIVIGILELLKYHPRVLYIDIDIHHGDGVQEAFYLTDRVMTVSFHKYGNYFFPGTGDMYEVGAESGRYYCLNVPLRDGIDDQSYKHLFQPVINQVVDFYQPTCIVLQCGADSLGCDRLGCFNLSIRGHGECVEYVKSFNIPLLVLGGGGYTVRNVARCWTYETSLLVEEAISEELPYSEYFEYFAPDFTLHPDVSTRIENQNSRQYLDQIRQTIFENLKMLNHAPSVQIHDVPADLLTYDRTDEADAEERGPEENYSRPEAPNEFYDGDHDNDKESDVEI
Sequence of Histone deacetylase 1 (Q13547 whole entry): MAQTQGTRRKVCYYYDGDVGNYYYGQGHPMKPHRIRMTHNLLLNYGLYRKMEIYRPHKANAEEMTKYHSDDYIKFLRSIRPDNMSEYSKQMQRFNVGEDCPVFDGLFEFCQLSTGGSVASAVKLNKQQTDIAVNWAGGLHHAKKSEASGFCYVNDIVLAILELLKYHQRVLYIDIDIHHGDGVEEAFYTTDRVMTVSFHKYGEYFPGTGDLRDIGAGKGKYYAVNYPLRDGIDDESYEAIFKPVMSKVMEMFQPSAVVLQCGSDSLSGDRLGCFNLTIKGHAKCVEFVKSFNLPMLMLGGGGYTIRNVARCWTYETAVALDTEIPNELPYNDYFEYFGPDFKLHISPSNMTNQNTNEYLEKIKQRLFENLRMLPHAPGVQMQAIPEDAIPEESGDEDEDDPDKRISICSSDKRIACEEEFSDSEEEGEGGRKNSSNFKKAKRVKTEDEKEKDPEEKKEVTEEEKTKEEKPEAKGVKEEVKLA

What is called IC50 is the midpoint of a concentration-inhibition curve. For orientation: MTD means the largest dose that counted as tolerated. One may read the Ki as a measure of affinity in units of concentration, obtained from inhibition or displacement. A lower Ki goes with a stronger hold on the target. With `CCCCCCc1nc2cc(/C=C/C(=O)NO)ccc2n1CCN(C)C`, the half-inhibitory concentration (IC50) was 10.3 µM in data set [1]; > 25 µM in data set [3]; 330 nM in [4]; 3.17 µM in [5]; > 25 µM in data set [6]; 28 nM in [11]. In data set [2], the MTD at 504 h is 200 mg/kg. The inhibitory constant (Ki) was 11 nM in data set [7], 300 nM in data set [8], 20 nM in data set [9] and 136 nM in data set [10].

A word on the AUC(0-inf): it is total exposure, with the tail of the curve extrapolated. High values mean more exposure, low ones less exposure. Usually CL/F stands for the apparent clearance, not corrected for the fraction that reaches the circulation. As to `CCCCc1nc2cc(/C=C/C(=O)NO)ccc2n1CCN(CC)CC.Cl.Cl`, the bioavailability in data set [12] was found to be 3.1%; in data set [18], 34%; in [19] it was 65%. Besides, the total exposure AUC(0-inf) in data set [13] turned out to be 4.27 µM·h; in [20], 10.5 µM·h; in data set [21], 1.15 µM·h. For the same compound, in data set [14], the apparent clearance (CL/F) is 153 mL/min/kg. Moreover, the half-maximal inhibitory concentration (IC50) is 5.78 µM in [1], > 25 µM in data set [3] and > 10 µM in data set [5]. In addition, the maximum tolerated dose (MTD) at 504 h in data set [2] was 50 mg/kg. Also, in data set [15], the half-life is 136 min. In addition, the figures for the Activity in [16] and in [17] were 7.1% and 12%, respectively. In addition, the Ki was found to be 24 nM in [7] and 247 nM in [8]. The fraction unbound at 1000 ng/mL in data set [22] is 0.061.

As for `CN(C)CC(C)(C)Cn1c(CC(C)(C)C)nc2cc(/C=C/C(=O)NO)ccc21`, the bioavailability turned out to be 4% in data set [12], 51% in data set [18] and 110% in [19]. The IC50 in [1] was 8.1 µM; in [3], 13.9 µM; in data set [4], 2280 nM; in data set [5], > 10 µM; in [6], > 25 µM; in data set [11], 46 nM. The inhibition constant (Ki) came out at 14 nM in [7], 94 nM in data set [8], 20 nM in data set [9] and 65 nM in [10].
